The conditions of data set [1]: mouse plasma, within 1 hour of incubation; cited from earlier work.
The conditions of data set [2]: rat plasma, within 1 hour of incubation; cited from earlier work.
For data set [3] the following is noted: human plasma in vitro; cited from earlier work.
The subject of another data set is carboxylesterases. Briefly: General carboxylesterase inhibition. In kind it is biochemical. As for the experimental part:
Carboxylesterase (CE) inhibition was determined by a spectroscopic assay using o-nitrophenyl acetate (o-NPA) as a substrate. Recombinant CEs produced from expression in Spodoptera frugiperda Sf9 insect cells via baculovirus were purified from serum-free culture media for the enzyme inhibition studies. Enzymes were incubated in 200 μl of 50 mM Hepes (pH 7.4) containing 3 mM o-NPA. Conversion of the o-NPA to nitrophenol was monitored by measuring the change in the absorbance at 420 nm. Absorbance readings were taken every 15 seconds for 2 minutes, and data transferred to a computer data spreadsheet. […] The final DMSO concentration was always 1% or less. […] The above procedure was then repeated using the same assay, with inhibitor concentrations ranging from 1 nM to 100 μM. Results were then transferred to Prism software (GraphPad Software, Inc., San Diego, Calif.) and Ki values determined using sigmoidal curve fits of the data. Routinely, all analyses were performed in duplicate, and Ki values determined using at least 8 inhibitor concentrations.

The subject of data set [4] is chicken liver carboxylesterase. The settings on record: cited from earlier work.

Read-outs that look alike come from different tables or passages of the source.

On to `CCc1c2c(nc3ccc(OC(=O)N4CCC(N5CCCCC5)CC4)cc13)-c1cc3c(c(=O)n1C2)COC(=O)[C@]3(O)CC` [CPT-11, 7-ethyl-10-[4-(1-piperidino)-1-piperidino]carbonyloxycamptothecin], for which the “drug converted to SN-38” value in data set [1] and in data set [2] was “greater than 50%” each time. Moreover, the “level of activation of CPT-11 by plasma” value in data set [3] is listed as “very low”.
As to `O=C(C(=O)c1ccccc1)c1ccccc1` [Compound 2, Diphenylethane-1,2-dione], in the data set on carboxylesterases, the “found to be general carboxylesterase inhibitors” value is on record as “general carboxylesterase inhibitors”. Moreover, the “inhibition of chicken liver carboxylesterase” value in data set [4] is “inhibition”.

These data come from patent US7973034B2, “Amide, aryl sulfonamide, aryl urea, and α,β-diketone derived carboxylesterase inhibitors, and their methods of use” (priority 2003, dated 2011).
